Results published in ChEMBL document CHEMBL1121874, “Importance of the aromatic ring in adrenergic amines. 5. Nonaromatic analogues of phenylethanolamine as inhibitors of phenylethanolamine N-methyltransferase: role of hydrophobic and steric interactions” (J Med Chem, 1981).

T1: Phenylethanolamine N-methyltransferase (Bos taurus, UniProt P10938)
T1 sequence (P10938 whole entry): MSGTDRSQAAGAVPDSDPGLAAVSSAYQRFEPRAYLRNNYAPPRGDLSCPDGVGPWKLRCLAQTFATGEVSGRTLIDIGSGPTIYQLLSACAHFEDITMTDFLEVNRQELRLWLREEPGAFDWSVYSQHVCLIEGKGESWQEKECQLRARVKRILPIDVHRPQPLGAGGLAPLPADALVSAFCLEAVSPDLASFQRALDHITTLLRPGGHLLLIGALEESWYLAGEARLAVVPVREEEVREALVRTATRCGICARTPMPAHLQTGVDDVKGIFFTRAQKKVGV


Compound: NC[C@@H](O)c1ccccc1
Assay: (§1) Inhibitory activity against phenylethanolamine N-methyl-transferase

Molecule	Km
Phenylethanolamine N-methyltransferase (Bos taurus), P10938 (protein) MSGTDRSQAAGAVPDSDPGLAAVSSAYQRFEPRAYLRNNYAPPRGDLSCPDGVGPWKLRCLAQTFATGEVSGRTLIDIGSGPTIYQLLSACAHFEDITMTDFLEVNRQELRLWLREEPGAFDWSVYSQHVCLIEGKGESWQEKECQLRARVKRILPIDVHRPQPLGAGGLAPLPADALVSAFCLEAVSPDLASFQRALDHITTLLRPGGHLLLIGALEESWYLAGEARLAVVPVREEEVREALVRTATRCGICARTPMPAHLQTGVDDVKGIFFTRAQKKVGV	136 µM

Biological target: T1, Phenylethanolamine N-methyltransferase
Assay: as §1

Molecule	IC50
O=CC1CCCCCCCCCC1 [CYCLOUNDECANE CARBALDEHYDE]	9 µM
NCC(O)C1CC=CCC1 (stereo unspecified)	52 µM
CC(C)CC=O	1000 µM
O=CC12CC3CC(CC(C3)C1)C2	195 µM
CCC(C)C(C)C(O)CN (stereo unspecified)	403 µM
C[Si](C)(C)OC1(C#N)CCCCCCCC1	17 µM
CCC(CC)C(C#N)O[Si](C)(C)C (stereo unspecified)	545 µM
NCC(O)C1=C/CCCC/C=C\1 (stereo unspecified)	57 µM
CCCCCCC(C)(O)CN (stereo unspecified)	664 µM
CCCCC=O [PENTANAL]	345 µM
CCCCCC(C#N)O[Si](C)(C)C (stereo unspecified)	314 µM
C[Si](C)(C)OC(C#N)C1CCC1 (stereo unspecified)	> 1000 µM
CCCCC(O)CN (stereo unspecified)	345 µM
O=CC1CCC1 [CYCLOBUTANE CARBALDEHYDE]	> 1000 µM
NCC(O)C1CCCC1 (stereo unspecified)	446 µM
NCC(O)/C1=C/CCCCCC1 (stereo unspecified)	38 µM
NCC(O)C1CCCCCCCC1 (stereo unspecified)	6 µM
NCC(O)C1CCCCCCC1 (stereo unspecified)	7 µM
C[Si](C)(C)OC(C#N)C1CCCC1 (stereo unspecified)	446 µM
NCC(O)C1CCCCCC1 (stereo unspecified)	8 µM
NCC1(O)CCCCCCCCCC1	8 µM
NCC(O)C1CCCCC1 (stereo unspecified)	14 µM
CCCCCCC=O [HEPTANAL]	109 µM

Molecule	IC50
CCCCCC(C)=O	669 µM
C[Si](C)(C)OC(C#N)C1CCCCCCCCCC1 (stereo unspecified)	9 µM
CCCCCC(O)CN (stereo unspecified)	314 µM
CCC(CC)C(O)CN (stereo unspecified)	545 µM
O=CC1CCCC1 [CYCLOPENTANECARBALDEHYDE]	446 µM
NCC1(O)CCCCCC1	510 µM
CCCCCCCC(C#N)O[Si](C)(C)C (stereo unspecified)	216 µM
CC(C)CC(C#N)O[Si](C)(C)C (stereo unspecified)	1000 µM
CC(C)CC(O)CN (stereo unspecified)	1000 µM
O=C1CCCCC1 [CYCLOHEXANONE]	> 1000 µM
NCC(O)C12CC3CC(CC(C3)C1)C2 (stereo unspecified)	195 µM
CCC(C=O)CC	545 µM
CCCCCCC(O)CN (stereo unspecified)	109 µM
C[Si](C)(C)OC1(C#N)CCCCC1	> 1000 µM
CCCCC(C#N)O[Si](C)(C)C (stereo unspecified)	345 µM
C[Si](C)(C)OC(C#N)C1CCCCCC1 (stereo unspecified)	8 µM
NCC1(O)CCCCC1	> 1000 µM
NCC1(O)CCCCCCC1	72 µM
NCC(O)C1=C/C=C\C=C/C=C\1 (stereo unspecified)	760 µM
CCC(C)C(C)C=O (stereo unspecified)	403 µM
C[Si](C)(C)OC(C#N)C1CCCCCCCC1 (stereo unspecified)	6 µM
O=CC1CCCCCC1 [CYCLOHEPTANE CARBALDEHYDE]	8 µM
O=C1CCCC1 [CYCLOPENTANONE]	> 1000 µM

Molecule	IC50
C[Si](C)(C)OC1(C#N)CCCCCC1	510 µM
O=CC1CCCCCCCC1 [CYCLONONANECARBALDEHYDE]	6 µM
O=C1CCCCCCC1 [CYCLOOCTANONE]	72 µM
CCCCCCC(C)(C#N)O[Si](C)(C)C (stereo unspecified)	664 µM
CCCCCCC(C)=O	664 µM
NCC(O)C1CCCCCCCCCC1 (stereo unspecified)	9 µM
CCCCCCC(C#N)O[Si](C)(C)C (stereo unspecified)	109 µM
CCCCCC(C)(O)CN (stereo unspecified)	669 µM
CCCCCCCC=O [OCTANAL]	216 µM
NCC(O)/C1=C/CC/C=C\CC1 (stereo unspecified)	89 µM
NCC(O)C1CCC1 (stereo unspecified)	> 1000 µM
O=C1CCCCCCCC1 [CYCLONONANONE]	17 µM
CCCCCC(C)(C#N)O[Si](C)(C)C (stereo unspecified)	669 µM
O=C1CCCCCC1 [CYCLOHEPTANONE]	510 µM
C[Si](C)(C)OC1(C#N)CCCCCCC1	72 µM
CCCCCC=O [HEXANAL]	314 µM
NCC1(O)CCCC1	> 1000 µM
NCC1(O)CCCCCCCC1	17 µM
C[Si](C)(C)OC(C#N)C12CC3CC(CC(C3)C1)C2 (stereo unspecified)	195 µM
CCCCCCCC(O)CN (stereo unspecified)	216 µM
CCC(C)C(C)C(C#N)O[Si](C)(C)C (stereo unspecified)	403 µM
C[Si](C)(C)OC1(C#N)CCCC1	> 1000 µM

Substrate: NCC(O)C1CCCCC1
Assay: (§2) Substrate activity against phenylethanolamine N-methyl-transferase was tested

Molecule	Km
Phenylethanolamine N-methyltransferase (Bos taurus), P10938 (protein) MSGTDRSQAAGAVPDSDPGLAAVSSAYQRFEPRAYLRNNYAPPRGDLSCPDGVGPWKLRCLAQTFATGEVSGRTLIDIGSGPTIYQLLSACAHFEDITMTDFLEVNRQELRLWLREEPGAFDWSVYSQHVCLIEGKGESWQEKECQLRARVKRILPIDVHRPQPLGAGGLAPLPADALVSAFCLEAVSPDLASFQRALDHITTLLRPGGHLLLIGALEESWYLAGEARLAVVPVREEEVREALVRTATRCGICARTPMPAHLQTGVDDVKGIFFTRAQKKVGV	40 µM

Substrate: NCC(O)C1CC=CCC1
Assay: as §2

Molecule	Km
Phenylethanolamine N-methyltransferase (Bos taurus), P10938 (protein) MSGTDRSQAAGAVPDSDPGLAAVSSAYQRFEPRAYLRNNYAPPRGDLSCPDGVGPWKLRCLAQTFATGEVSGRTLIDIGSGPTIYQLLSACAHFEDITMTDFLEVNRQELRLWLREEPGAFDWSVYSQHVCLIEGKGESWQEKECQLRARVKRILPIDVHRPQPLGAGGLAPLPADALVSAFCLEAVSPDLASFQRALDHITTLLRPGGHLLLIGALEESWYLAGEARLAVVPVREEEVREALVRTATRCGICARTPMPAHLQTGVDDVKGIFFTRAQKKVGV	57 µM

Substrate: NCC(O)C1CCCCCCC1
Assay: as §2

Molecule	Km
Phenylethanolamine N-methyltransferase (Bos taurus), P10938 (protein) MSGTDRSQAAGAVPDSDPGLAAVSSAYQRFEPRAYLRNNYAPPRGDLSCPDGVGPWKLRCLAQTFATGEVSGRTLIDIGSGPTIYQLLSACAHFEDITMTDFLEVNRQELRLWLREEPGAFDWSVYSQHVCLIEGKGESWQEKECQLRARVKRILPIDVHRPQPLGAGGLAPLPADALVSAFCLEAVSPDLASFQRALDHITTLLRPGGHLLLIGALEESWYLAGEARLAVVPVREEEVREALVRTATRCGICARTPMPAHLQTGVDDVKGIFFTRAQKKVGV	26 µM

Substrate: NCC(O)C1=C/CCCC/C=C\1
Assay: as §2

Molecule	Km
Phenylethanolamine N-methyltransferase (Bos taurus), P10938 (protein) MSGTDRSQAAGAVPDSDPGLAAVSSAYQRFEPRAYLRNNYAPPRGDLSCPDGVGPWKLRCLAQTFATGEVSGRTLIDIGSGPTIYQLLSACAHFEDITMTDFLEVNRQELRLWLREEPGAFDWSVYSQHVCLIEGKGESWQEKECQLRARVKRILPIDVHRPQPLGAGGLAPLPADALVSAFCLEAVSPDLASFQRALDHITTLLRPGGHLLLIGALEESWYLAGEARLAVVPVREEEVREALVRTATRCGICARTPMPAHLQTGVDDVKGIFFTRAQKKVGV	128 µM

Substrate: NCC(O)/C1=C/CCCCCC1
Assay: as §2

Molecule	Km
Phenylethanolamine N-methyltransferase (Bos taurus), P10938 (protein) MSGTDRSQAAGAVPDSDPGLAAVSSAYQRFEPRAYLRNNYAPPRGDLSCPDGVGPWKLRCLAQTFATGEVSGRTLIDIGSGPTIYQLLSACAHFEDITMTDFLEVNRQELRLWLREEPGAFDWSVYSQHVCLIEGKGESWQEKECQLRARVKRILPIDVHRPQPLGAGGLAPLPADALVSAFCLEAVSPDLASFQRALDHITTLLRPGGHLLLIGALEESWYLAGEARLAVVPVREEEVREALVRTATRCGICARTPMPAHLQTGVDDVKGIFFTRAQKKVGV	110 µM

Substrate: NCC(O)/C1=C/CC/C=C\CC1
Assay: as §2

Molecule	Km
Phenylethanolamine N-methyltransferase (Bos taurus), P10938 (protein) MSGTDRSQAAGAVPDSDPGLAAVSSAYQRFEPRAYLRNNYAPPRGDLSCPDGVGPWKLRCLAQTFATGEVSGRTLIDIGSGPTIYQLLSACAHFEDITMTDFLEVNRQELRLWLREEPGAFDWSVYSQHVCLIEGKGESWQEKECQLRARVKRILPIDVHRPQPLGAGGLAPLPADALVSAFCLEAVSPDLASFQRALDHITTLLRPGGHLLLIGALEESWYLAGEARLAVVPVREEEVREALVRTATRCGICARTPMPAHLQTGVDDVKGIFFTRAQKKVGV	155 µM

Substrate: NCC(O)C1=C/C=C\C=C/C=C\1
Assay: as §2

Molecule	Km
Phenylethanolamine N-methyltransferase (Bos taurus), P10938 (protein) MSGTDRSQAAGAVPDSDPGLAAVSSAYQRFEPRAYLRNNYAPPRGDLSCPDGVGPWKLRCLAQTFATGEVSGRTLIDIGSGPTIYQLLSACAHFEDITMTDFLEVNRQELRLWLREEPGAFDWSVYSQHVCLIEGKGESWQEKECQLRARVKRILPIDVHRPQPLGAGGLAPLPADALVSAFCLEAVSPDLASFQRALDHITTLLRPGGHLLLIGALEESWYLAGEARLAVVPVREEEVREALVRTATRCGICARTPMPAHLQTGVDDVKGIFFTRAQKKVGV	430 µM
